Test results taken from patent publication US4120864A, “1,2,4-4H-triazole derivatives” (Rohm and Haas Company, priority 1972, dated 1978).
Like-named read-outs stand apart in the source and are kept apart here.

Tests used:
[1] = test system: Phytophthora infestans; assay type: in vivo; settings: foliar application at 1200 ppm or root uptake from treated soil containing 20 ppm
[2] = test system: Botrytis cinerea; settings: in vivo
[3] = test system: wheat leaf rust, Puccinia recondita; assay: whole plant or invertebrate; assay type: in vivo; settings: foliar; for pest or weed control at 280.212 g/ha: read-out: % Control (without rain), foliar, 0.25 lb.; for pest or weed control at 1120.85 g/ha: read-out: % Control (without rain), foliar, 1 lb.
[4] = test system: leaf rust on winter wheat; assay: Systemic field test, leaf rust on winter wheat; assay type: in vivo; settings: 46 days after application, untreated 1109
[5] = test system: wheat leaf rust, Puccinia recondita; assay: whole plant or invertebrate; assay type: in vivo; settings: foliar; for pest or weed control at 280.212 g/ha: read-out: % Control (with 1" of rain), foliar, 0.25 lb., 1" of rain; for pest or weed control at 1120.85 g/ha: read-out: % Control (with 1" of rain), foliar, 1 lb., 1" of rain
[6] = test system: wheat leaf rust, Puccinia recondita; assay type: in vivo
[7] = test system: leaf rust on spring wheat; assay: Systemic field test, leaf rust on spring wheat; assay type: in vivo; settings: 36 days after treatment
[8] = test system: wheat leaf rust, Puccinia recondita; assay: Foliar systemic activity on leaf rust; assay type: in vivo
Description: Another type of systemic test was run in which pots of approximately 5 inch high wheat plants were sprayed with varying concentrations of the test compound. Thirty-six hours later they were sprayed six minutes in a rain machine which amounted to about one inch of normal rainfall. The plants were then placed in a greenhouse for 7 days and then inoculated with a spore suspension of wheat leaf rust, Puccinia recondita. About 7 days later lesion counts were made on ten leaves representing the sprayed leaves and new growth from each replicate and compared with similar pots of wheat plants which were untreated with a chemical and the percent disease control determined. Disease control on the new growth is a measure of systemic activity. The commercial product known by the trademarked name Plantvax, which is 2,3-dihydro-5-carboxanilido-6-methyl-1,4-oxathiin-4,4-dioxide, was used as a standard.

[9] = test system: rice blast, Piricularia oryzae; assay type: in vivo; settings: foliar application, 1200 ppm
[10] = test system: Pythium ultimum; settings: in vivo

Compound	control of Phytophthora infestans [1]	pest or weed control at 280.212 g/ha [3]	pest or weed control at 1120.85 g/ha [3]	pest or weed control at 280.212 g/ha [5]	pest or weed control at 1120.85 g/ha [5]	% Rust Control, New growth ([8]; 1/2 lb./100 gal.)	% Rust Control, Sprayed Leaf ([8]; 1/2 lb./100 gal.)	% Rust Control, New growth ([8]; 1/6 lb./100 gal.)	% Rust Control, Sprayed Leaf ([8]; 1/6 lb./100 gal.)	% Rust Control, Sprayed Leaf ([8]; 1/12 lb./100 gal.)	also measured
CCCCCCCCn1cnnc1 [Example 10, 4-n-octyl-1,2,4-triazole]	good control										
4-(2-ethylhexyl)-1,2,4-triazole [Example 11]											control of Botrytis cinerea on broad bean [2]: 50-85%
CCCCn1cnnc1S [Example 76, 3-mercapto-4-n-butyl-1,2,4-triazole]		100%	100%	100%	100%	90%	97%	77%	88%	80%	No. of lesions/800 leaves ([4]; 0.5 lbs./acre): 453 lesions/800 leaves; No. of lesions/800 leaves ([4]; 1 lbs./acre): 239 lesions/800 leaves; No. of lesions/800 leaves ([4]; 2 lbs./acre): 89 lesions/800 leaves; % Systemic Wheat Leaf Rust Control ([6]; 2.5 ppm in soil): 83%; % Systemic Wheat Leaf Rust Control ([6]; 5 ppm in soil): 97%; % Systemic Wheat Leaf Rust Control ([6]; 10 ppm in soil): 100%; % Leaves infected ([7]; 0.5 lbs./acre): 23%; % Leaves infected ([7]; 1 lbs./acre): 10%; % Leaves infected ([7]; 2 lbs./acre): 4%; % Rust Control, New growth ([8]; 1/12 lb./100 gal.): 75%
CCOCCn1cnnc1 [Example 24, 4-(2-ethoxyethyl)-1,2,4-triazole]	good control	80%	95%	50%	95%						
CCCCCCCCCCCCn1cnnc1 [Example 13, 4-n-dodecyl-1,2,4-triazole]		20%	60%	0%	30%						control of rice blast, Piricularia oryzae [9]: 95-100%
c1ccc(OCCn2cnnc2)cc1 [Example 25, 4-(2-phenoxyethyl)-1,2,4-triazole]	good control	0%	0%	0%	0%						
CC1=C(C(=O)Nc2ccccc2)S(=O)(=O)CCO1 [Plantvax, 2,3-dihydro-5-carboxanilido-6-methyl-1,4-oxathiin-4,4-dioxide, reference compound]						38%	49%	32%	37%	3%	No. of lesions/800 leaves ([4]; 0.5 lbs./acre): 1113 lesions/800 leaves; No. of lesions/800 leaves ([4]; 1 lbs./acre): 1017 lesions/800 leaves; No. of lesions/800 leaves ([4]; 2 lbs./acre): 690 lesions/800 leaves; % Leaves infected ([7]; 0.5 lbs./acre): 79%; % Leaves infected ([7]; 1 lbs./acre): 78%; % Leaves infected ([7]; 2 lbs./acre): 75%
OCCCn1cnnc1 [Example 18, 4-(3-hydroxypropyl)-1,2,4-triazole]	good control	0%	0%	0%	0%						
CCCCn1cnnc1SC(=O)c1ccc(OC)cc1 [Example 121, 3-(4-methoxybenzoylmercapto)-4-n-butyl-1,2,4-triazole]		90%	98%	100%	100%	92%	95%	79%	81%	91%	control of Pythium ultimum [10]: excellent control; % Systemic Wheat Leaf Rust Control ([6]; 2.5 ppm in soil): 98%; % Systemic Wheat Leaf Rust Control ([6]; 5 ppm in soil): 100%; % Systemic Wheat Leaf Rust Control ([6]; 10 ppm in soil): 100%; % Rust Control, New growth ([8]; 1/12 lb./100 gal.): 77%
CCOCCCn1cnnc1 [Example 47]	good control	80%	80%	30%	55%						
